Tests used:
Format in all cases: cell-based
[1] = molecular target: T1, indoleamine 2, 3-dioxygenase (IDO1) (Homo sapiens, UniProt P14902); assay: IDO1 PBMC RapidFire MS assay (kynurenine detection by mass spectrometry); design: to induce the expression of indoleamine 2, 3-dioxygenase (IDO1); host or cells: human PBMC stimulated with IFN-gamma and LPS; conditions: human PBMC stimulated with IFN-γ and LPS, 2 days, pIC50, read-out: PBMC PXC50 (converted)
Summary of the method: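 PBMCs (50,000 cells/well) stimulated with IFN-γ 100 ng/ml plus LPS 50 ng/ml, treated with 11-point 3-fold compound series for 2 days at 37° C. Supernatant kynurenine measured by RapidFire MS, normalised to internal standard; parallel cytotoxicity by CellTiter-Glo luminescence; curves fitted for XC50.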

[2] = system: human epithelial HeLa cells; assay: HeLa cytotoxicity assay (CellTiter-Glo); conditions: pCC50
Summary of the method: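 HeLa cells (5,000/well) stimulated with 10 nM IFN-γ, exposed to 11-point 3-fold compound dilutions for 2 days at 37 °C; viability by CellTiter-Glo ATP luminescence. Normalized to cell-free (100% cytotoxicity) and stimulated-cell DMSO (0%) controls; four-parameter fit gives pCC50.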

[3] = molecular target: T1, indoleamine 2, 3-dioxygenase (IDO1); assay: IDO1 HeLa RapidFire MS assay (kynurenine detection by mass spectrometry); design: to induce the expression of indoleamine 2, 3-dioxygenase (IDO1); conditions: HeLa cells, pIC50, read-out: IDO1_HELA_PXC50 (converted)
Summary of the method: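 Compound potency reported as pIC50 from kynurenine/internal-standard ratio (RapidFire MS) in supernatant of IFN-γ-induced (10 nM) HeLa cells, 5,000 per well, after 2 days' treatment with 11-point dilutions. Cytotoxicity in the same format by luminescent ATP detection, reported as pCC50.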

[4] = system: human peripheral blood mononuclear cells (PBMC); assay: PBMC cytotoxicity assay (CellTiter-Glo); conditions: 2 days, pCC50
Summary of the method: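 Human PBMC (50,000 cells/well) stimulated with IFN-γ 100 ng/ml and LPS 50 ng/ml were exposed to 11-point 3-fold compound dilutions for 2 days at 37 °C, 5% CO2. Viability read by CellTiter-Glo ATP luminescence and normalized to no-cell and stimulated-DMSO controls. XC50 derived by four-parameter fit.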

T1 sequence (P14902 whole entry): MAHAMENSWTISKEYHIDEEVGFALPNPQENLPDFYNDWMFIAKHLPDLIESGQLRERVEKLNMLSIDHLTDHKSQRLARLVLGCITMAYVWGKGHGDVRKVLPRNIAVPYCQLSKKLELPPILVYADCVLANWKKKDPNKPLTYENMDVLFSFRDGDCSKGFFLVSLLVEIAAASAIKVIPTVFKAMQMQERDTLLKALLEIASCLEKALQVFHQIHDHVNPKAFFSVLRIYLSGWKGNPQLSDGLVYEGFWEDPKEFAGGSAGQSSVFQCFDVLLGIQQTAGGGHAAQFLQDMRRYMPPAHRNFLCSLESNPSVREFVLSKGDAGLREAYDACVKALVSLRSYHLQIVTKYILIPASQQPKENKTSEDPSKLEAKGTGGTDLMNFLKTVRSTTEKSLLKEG

Compound	IC50 [1] [nM]	HELA_IDO1_TOX_PXC50 [2]	IC50 [3] [nM]	PBMC TOX PXC50 [4]
CC(C)CN(c1ccc([C@H](C)CC(=O)O)cc1Nc1nnc(C(C)C)[nH]1)C1CCOCC1 [example 212, (3R)-3-{4-[(2-methylpropyl)(oxan-4-yl)amino]-3-{[5-(propan-2-yl)-4H-1,2,4-triazol-3-yl]amino}phenyl}butanoic acid]	63.1	<5	200	<5
COc1ccc2[nH]c(Nc3cc(-c4ccccc4C(=O)O)ccc3N(CC(C)C)C3CCCCC3)nc2c1 [example 287, 4′-[cyclohexyl(2-methylpropyl)amino]-3′-[(5-methoxy-1H-1,3-benzodiazol-2-yl)amino]-[1,1′-biphenyl]-2-carboxylic acid]	7.94	<5	7.94	<5
CC(C)CN(CC(C)C)c1ccc([C@H](C)CC(=O)O)cc1Nc1nnc(C(F)(F)F)s1 [Example 87, (R)-3-(4-(diisobutylamino)-3-((5-(trifluoromethyl)-1,3,4-thiadiazol-2-yl)amino)phenyl)butanoic Acid]	3.98	<5	7.94	<5
COCc1nnc(Nc2cc([C@H](C)CC(=O)O)ccc2N(CC(C)C)C2CCOCC2)[nH]1 [example 213, (3R)-3-(3-{[5-(methoxymethyl)-4H-1,2,4-triazol-3-yl]amino}-4-[(2-methylpropyl)(oxan-4-yl)amino]phenyl)butanoic acid]	200	<5	794	<5
CC(C)CN(CC(C)C)c1ccc(C(C)CC(=O)O)cc1-n1nnnc1N (centres unmarked) [example 167, 3-[3-(5-amino-1H-1,2,3,4-tetrazol-1-yl)-4-[bis(2-methylpropyl)amino]phenyl]butanoic acid]	6310	<5	> 10000	<5
CC(C)CN(c1ccc(-c2ccccc2C(=O)O)cc1Nc1nc(C(F)(F)F)ns1)[C@H]1CC[C@@H](O)CC1 [example 279, 4′-[(2-methylpropyl)[(1s,4s)-4-hydroxycyclohexyl]amino]-3′-{[3-(trifluoromethyl)-1,2,4-thiadiazol-5-yl]amino}-[1,1′-biphenyl]-2-carboxylic acid]	20	<5	100	<5
CC(C)CN(c1ccc(C2CC2C(=O)O)cc1Nc1nc(C(F)(F)F)ns1)C1CCCCC1 (single isomer, unassigned) [Example 104, 2-(4-(cyclohexyl(isobutyl)amino)-3-((3-(trifluoromethyl)-1,2,4-thiadiazol-5-yl)amino)phenyl)cyclopropanecarboxylic Acid]	2.51	<5	3.16	<5
CC(C)CN(c1ccc([C@H](C)CC(=O)O)cc1Nc1nnc(C(N)=O)s1)C1CCCCC1 [Example 81, (R)-3-(3-((5-Carbamoyl-1,3,4-thiadiazol-2-yl)amino)-4-(cyclohexyl(isobutyl)amino)phenyl)butanoic]	3.98	<5	7.94	<5
CC(C)CN(c1ccc([C@H](C)CC(=O)O)cc1Nc1ccc(C(F)(F)F)cn1)C1CCCCC1 [Example 76, (R)-3-(4-(cyclohexyl(isobutyl)amino)-3-((5-(trifluoromethyl)pyridin-2-yl)amino)phenyl)butanoic Acid]	2.51	<5	3.98	<5
CC[C@H](CC(=O)O)c1ccc(N(CC(C)C)C2CCCCC2)c(Nc2nc(Cl)ns2)c1 [Example 42]	0.501	<5	5.01	<5
CC(C)CN(c1ccc([C@H](C)CC(=O)O)cc1Nc1cccc(Cl)n1)C1CCCCC1 [example 169, (3R)-3-{3-[(6-chloropyridin-2-yl)amino]-4-[cyclohexyl(2-methylpropyl)amino]phenyl}butanoic acid]	7.94	<5	25.1	<5
CC(C)CN(CC(C)C)c1ccc(-c2ccccc2C(=O)O)cc1Nc1nc(C(F)(F)F)ns1 [Example 90, 4′-(diisobutylamino)-3′-((3-(trifluoromethyl)-1,2,4-thiadiazol-5-yl)amino)-[1,1′-biphenyl]-2-carboxylic Acid]	10	<5	25.1	<5
Cc1nnc(Nc2cc([C@H](C)CC(=O)O)ccc2N(CC(C)C)C2CCOCC2)s1 [example 215, (3R)-3-{3-[(5-methyl-1,3,4-thiadiazol-2-yl)amino]-4-[(2-methylpropyl)(oxan-4-yl)amino]phenyl}butanoic acid]	31.6	<5	20	<5
CC(C)CN(c1ccc([C@H](C)CC(=O)O)cc1Nc1nc(C2CC2)ns1)C1CCOCC1 [Example 28, (R)-3-(3-((3-cyclopropyl-1,2,4-thiadiazol-5-yl)amino)-4-(isobutyl(tetrahydro-2H-pyran-4-yl)amino)phenyl)butanoic Acid]	5.01	<5	6.31	<5
CC(C)CN(c1ccc(-c2ccccc2C(=O)O)cc1Nc1nc(C(F)(F)F)cs1)C1CCCCC1 [example 299, 4′-[cyclohexyl(2-methylpropyl)amino]-3′-{[4-(trifluoromethyl)-1,3-thiazol-2-yl]amino}-[1,1′-biphenyl]-2-carboxylic acid]	6.31	<5	15.8	<5
CC(C)CN(CC(C)C)c1ccc(C(C)CC(=O)O)cc1Nc1ncccn1 (centres unmarked) [example 156, 3-{4-[bis(2-methylpropyl)amino]-3-[(pyrimidin-2-yl)amino]phenyl}butanoic acid]	7940	<5	> 10000	<5
CC(C)CN(c1ccc(C(C)OCC(=O)O)cc1Nc1nc2ccccc2[nH]1)C1CCCCC1 (centres unmarked) [example 173, 2-(1-{3-[(1H-1,3-benzodiazol-2-yl)amino]-4-[cyclohexyl(2-methylpropyl)amino]phenyl}ethoxy)acetic acid]	25.1	<5	20	<5
Cc1nnc(Nc2cc(-c3ccccc3C(=O)O)ccc2N(CC(C)C)CC(C)C)s1 [example 298, 4′-[bis(2-methylpropyl)amino]-3′-[(5-methyl-1,3,4-thiadiazol-2-yl)amino]-[1,1′-biphenyl]-2-carboxylic acid]	39.8	<5	251	<5
COCCc1nnc(Nc2cc([C@H](C)CC(=O)O)ccc2N(CC(C)C)CC(C)C)[nH]1 [example 203, (3R)-3-{4-[bis(2-methylpropyl)amino]-3-{[5-(2-methoxyethyl)-4H-1,2,4-triazol-3-yl]amino}phenyl}butanoic acid]	31.6	<5	63.1	<5
CC(C)CN(c1ccc(C(C)CC(=O)O)cc1Nc1nc(C(F)(F)F)ns1)C1CCOCC1 (centres unmarked) [example 202, 3-{4-[(2-methylpropyl)(oxan-4-yl)amino]-3-{[3-(trifluoromethyl)-1,2,4-thiadiazol-5-yl]amino}phenyl}butanoic acid]	1.58	<5	3.16	<5
CC(C)CN(c1ccc([C@H](C)CC(=O)O)cc1Nc1nc(C(F)(F)F)ns1)C1CCN(S(C)(=O)=O)CC1 [Example 71]	5.01	<5	20	<5
CC(C)CN(CC(C)C)c1ccc(C(C)CC(=O)O)cc1Nc1nnn[nH]1 (centres unmarked) [example 168, 3-{4-[bis(2-methylpropyl)amino]-3-[(1H-1,2,3,4-tetrazol-5-yl)amino]phenyl}butanoic acid]	> 10000	<5	> 10000	<5
CC(C)CN(c1ccc(-c2ccccc2C(=O)O)cc1Nc1nc(C(F)(F)F)ns1)[C@H]1CC[C@H](O)CC1 [Example 112, 4′-(((1r,4r)-4-hydroxycyclohexyl) (isobutyl)amino)-3′-((3-(trifluoromethyl)-1,2,4-thiadiazol-5-yl)amino)-[1,1′-biphenyl]-2-carboxylic Acid]	7.94	<5	15.8	6.1

— patent US10899754B2, “Modulators of indoleamine 2,3-dioxygenase” (GLAXOSMITHKLINE INTELLECTUAL PROPERTY DEVELOPMENT LIMITED, priority 2016, dated 2021)
